Laboratory results published in PubChem BioAssay (NCI).
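How tested: cells in 96-well plates exposed to compound for 48 hours at five concentrations. GI50: concentration for 50% inhibition of growth. The concentration for full growth arrest is given as TGI.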

What was measured:
Assay in all cases: NCI tumour cell line growth inhibition, 48 h
786-0 renal = system: 786-0 renal
A549 NSCLC = system: A549 NSCLC
ACHN renal = system: ACHN renal
BT-549 breast = system: BT-549 breast
CAKI-1 renal = system: CAKI-1 renal
CCRF-CEM leukemia = system: CCRF-CEM leukemia
COLO 205 colon = system: COLO 205 colon
DU-145 prostate = system: DU-145 prostate
HCC-2998 colon = system: HCC-2998 colon
HCT-116 colon = system: HCT-116 colon
HCT-15 colon = system: HCT-15 colon
HL-60(TB) leukemia = system: HL-60(TB) leukemia
HOP-62 NSCLC = system: HOP-62 NSCLC
HOP-92 NSCLC = system: HOP-92 NSCLC
HS 578T breast = system: HS 578T breast
HT29 colon = system: HT29 colon
IGROV1 ovarian = system: IGROV1 ovarian
K-562 leukemia = system: K-562 leukemia
KM12 colon = system: KM12 colon
LOX IMVI melanoma = system: LOX IMVI melanoma
M14 melanoma = system: M14 melanoma
MCF7 breast = system: MCF7 breast
MDA-MB-231 breast = system: MDA-MB-231 breast
MDA-MB-435 = system: MDA-MB-435
MOLT-4 leukemia = system: MOLT-4 leukemia
NCI-H226 lung = system: NCI-H226 lung
NCI-H23 lung = system: NCI-H23 lung
NCI-H460 lung = system: NCI-H460 lung
NCI-H522 lung = system: NCI-H522 lung
NCI/ADR-RES ovarian = system: NCI/ADR-RES ovarian
OVCAR-3 ovarian = system: OVCAR-3 ovarian
OVCAR-4 ovarian = system: OVCAR-4 ovarian
OVCAR-5 ovarian = system: OVCAR-5 ovarian
OVCAR-8 ovarian = system: OVCAR-8 ovarian
PC-3 prostate = system: PC-3 prostate
RPMI-8226 leukemia = system: RPMI-8226 leukemia
RXF 393 renal = system: RXF 393 renal
SF-268 CNS = system: SF-268 CNS
SF-295 CNS = system: SF-295 CNS
SF-539 CNS = system: SF-539 CNS
SK-MEL-2 melanoma = system: SK-MEL-2 melanoma
SK-MEL-28 melanoma = system: SK-MEL-28 melanoma
SK-MEL-5 melanoma = system: SK-MEL-5 melanoma
SK-OV-3 ovarian = system: SK-OV-3 ovarian
SN12C renal = system: SN12C renal
SNB-19 CNS = system: SNB-19 CNS
SNB-75 CNS = system: SNB-75 CNS
SR leukemia = system: SR leukemia
SW-620 colon = system: SW-620 colon
T-47D breast = system: T-47D breast
TK-10 renal = system: TK-10 renal
U251 CNS = system: U251 CNS
UACC-257 melanoma = system: UACC-257 melanoma
UACC-62 melanoma = system: UACC-62 melanoma
UO-31 renal = system: UO-31 renal

Question: With `CC(C)N(CCCNC(=O)Nc1ccc(C(C)(C)C)cc1)C[C@H]1O[C@@H](n2ccc3c(N)ncnc32)[C@H](O)[C@@H]1O` as the molecule, how does the GI50 (786-0 renal) read?
Answer: > 100 µM

Question: And the TGI (786-0 renal)?
Answer: > 100 µM

Question: What about the GI50 (A549 NSCLC) of the same molecule?
Answer: > 100 µM

Question: And the TGI (A549 NSCLC)?
Answer: > 100 µM

Question: And the GI50 (ACHN renal)?
Answer: > 100 µM

Question: And the TGI (ACHN renal)?
Answer: > 100 µM

Question: What about the GI50 (BT-549 breast) of the same molecule?
Answer: > 100 µM

Question: And the TGI (BT-549 breast)?
Answer: > 100 µM

Question: What about the GI50 (CAKI-1 renal) of the same molecule?
Answer: > 100 µM

Question: What about the TGI (CAKI-1 renal) of the same molecule?
Answer: > 100 µM

Question: And the GI50 (CCRF-CEM leukemia)?
Answer: > 100 µM

Question: And the TGI (CCRF-CEM leukemia)?
Answer: > 100 µM

Question: And the GI50 (COLO 205 colon)?
Answer: > 100 µM

Question: And the TGI (COLO 205 colon)?
Answer: > 100 µM

Question: And the GI50 (DU-145 prostate)?
Answer: > 100 µM

Question: What about the TGI (DU-145 prostate) of the same molecule?
Answer: > 100 µM

Question: What about the GI50 (HCC-2998 colon) of the same molecule?
Answer: > 100 µM

Question: What about the TGI (HCC-2998 colon) of the same molecule?
Answer: > 100 µM

Question: What about the GI50 (HCT-116 colon) of the same molecule?
Answer: > 100 µM

Question: And the TGI (HCT-116 colon)?
Answer: > 100 µM

Question: What about the GI50 (HCT-15 colon) of the same molecule?
Answer: > 100 µM

Question: What about the TGI (HCT-15 colon) of the same molecule?
Answer: > 100 µM

Question: What about the GI50 (HL-60(TB) leukemia) of the same molecule?
Answer: > 100 µM

Question: What about the TGI (HL-60(TB) leukemia) of the same molecule?
Answer: > 100 µM

Question: And the GI50 (HOP-62 NSCLC)?
Answer: > 100 µM

Question: And the TGI (HOP-62 NSCLC)?
Answer: > 100 µM

Question: What about the GI50 (HOP-92 NSCLC) of the same molecule?
Answer: > 100 µM

Question: What about the TGI (HOP-92 NSCLC) of the same molecule?
Answer: > 100 µM

Question: What about the GI50 (HS 578T breast) of the same molecule?
Answer: > 100 µM

Question: And the TGI (HS 578T breast)?
Answer: > 100 µM

Question: What about the GI50 (HT29 colon) of the same molecule?
Answer: > 100 µM

Question: And the TGI (HT29 colon)?
Answer: > 100 µM

Question: What about the GI50 (IGROV1 ovarian) of the same molecule?
Answer: > 100 µM

Question: And the TGI (IGROV1 ovarian)?
Answer: > 100 µM

Question: And the GI50 (K-562 leukemia)?
Answer: > 100 µM

Question: And the TGI (K-562 leukemia)?
Answer: > 100 µM

Question: And the GI50 (KM12 colon)?
Answer: > 100 µM

Question: And the TGI (KM12 colon)?
Answer: > 100 µM

Question: What about the GI50 (LOX IMVI melanoma) of the same molecule?
Answer: > 100 µM

Question: And the TGI (LOX IMVI melanoma)?
Answer: > 100 µM

Question: And the GI50 (M14 melanoma)?
Answer: > 100 µM

Question: And the TGI (M14 melanoma)?
Answer: > 100 µM

Question: What about the GI50 (MCF7 breast) of the same molecule?
Answer: > 100 µM

Question: And the TGI (MCF7 breast)?
Answer: > 100 µM

Question: What about the GI50 (MDA-MB-231 breast) of the same molecule?
Answer: > 100 µM

Question: And the TGI (MDA-MB-231 breast)?
Answer: > 100 µM

Question: What about the GI50 (MDA-MB-435) of the same molecule?
Answer: > 100 µM

Question: And the TGI (MDA-MB-435)?
Answer: > 100 µM

Question: What about the GI50 (MOLT-4 leukemia) of the same molecule?
Answer: > 100 µM

Question: And the TGI (MOLT-4 leukemia)?
Answer: > 100 µM

Question: What about the GI50 (NCI-H226 lung) of the same molecule?
Answer: > 100 µM

Question: And the TGI (NCI-H226 lung)?
Answer: > 100 µM

Question: And the GI50 (NCI-H23 lung)?
Answer: > 100 µM

Question: What about the TGI (NCI-H23 lung) of the same molecule?
Answer: > 100 µM

Question: And the GI50 (NCI-H460 lung)?
Answer: > 100 µM

Question: And the TGI (NCI-H460 lung)?
Answer: > 100 µM

Question: What about the GI50 (NCI-H522 lung) of the same molecule?
Answer: > 100 µM

Question: What about the TGI (NCI-H522 lung) of the same molecule?
Answer: > 100 µM

Question: What about the GI50 (NCI/ADR-RES ovarian) of the same molecule?
Answer: > 100 µM

Question: And the TGI (NCI/ADR-RES ovarian)?
Answer: > 100 µM

Question: And the GI50 (OVCAR-3 ovarian)?
Answer: > 100 µM

Question: And the TGI (OVCAR-3 ovarian)?
Answer: > 100 µM

Question: What about the GI50 (OVCAR-4 ovarian) of the same molecule?
Answer: > 100 µM

Question: What about the TGI (OVCAR-4 ovarian) of the same molecule?
Answer: > 100 µM

Question: What about the GI50 (OVCAR-5 ovarian) of the same molecule?
Answer: > 100 µM

Question: What about the TGI (OVCAR-5 ovarian) of the same molecule?
Answer: > 100 µM

Question: What about the GI50 (OVCAR-8 ovarian) of the same molecule?
Answer: > 100 µM

Question: And the TGI (OVCAR-8 ovarian)?
Answer: > 100 µM

Question: And the GI50 (PC-3 prostate)?
Answer: > 100 µM

Question: And the TGI (PC-3 prostate)?
Answer: > 100 µM

Question: What about the GI50 (RPMI-8226 leukemia) of the same molecule?
Answer: > 100 µM

Question: What about the TGI (RPMI-8226 leukemia) of the same molecule?
Answer: > 100 µM

Question: And the GI50 (RXF 393 renal)?
Answer: > 100 µM

Question: What about the TGI (RXF 393 renal) of the same molecule?
Answer: > 100 µM

Question: And the GI50 (SF-268 CNS)?
Answer: > 100 µM

Question: What about the TGI (SF-268 CNS) of the same molecule?
Answer: > 100 µM

Question: What about the GI50 (SF-295 CNS) of the same molecule?
Answer: > 100 µM

Question: What about the TGI (SF-295 CNS) of the same molecule?
Answer: > 100 µM

Question: What about the GI50 (SF-539 CNS) of the same molecule?
Answer: > 100 µM

Question: What about the TGI (SF-539 CNS) of the same molecule?
Answer: > 100 µM

Question: What about the GI50 (SK-MEL-2 melanoma) of the same molecule?
Answer: > 100 µM

Question: And the TGI (SK-MEL-2 melanoma)?
Answer: > 100 µM

Question: What about the GI50 (SK-MEL-28 melanoma) of the same molecule?
Answer: > 100 µM

Question: What about the TGI (SK-MEL-28 melanoma) of the same molecule?
Answer: > 100 µM

Question: What about the GI50 (SK-MEL-5 melanoma) of the same molecule?
Answer: > 100 µM

Question: What about the TGI (SK-MEL-5 melanoma) of the same molecule?
Answer: > 100 µM

Question: And the GI50 (SK-OV-3 ovarian)?
Answer: > 100 µM

Question: What about the TGI (SK-OV-3 ovarian) of the same molecule?
Answer: > 100 µM

Question: What about the GI50 (SN12C renal) of the same molecule?
Answer: > 100 µM

Question: What about the TGI (SN12C renal) of the same molecule?
Answer: > 100 µM

Question: And the GI50 (SNB-19 CNS)?
Answer: > 100 µM

Question: What about the TGI (SNB-19 CNS) of the same molecule?
Answer: > 100 µM

Question: What about the GI50 (SNB-75 CNS) of the same molecule?
Answer: 26.2 µM

Question: And the TGI (SNB-75 CNS)?
Answer: > 100 µM

Question: And the GI50 (SR leukemia)?
Answer: > 100 µM

Question: What about the TGI (SR leukemia) of the same molecule?
Answer: > 100 µM

Question: What about the GI50 (SW-620 colon) of the same molecule?
Answer: > 100 µM

Question: And the TGI (SW-620 colon)?
Answer: > 100 µM

Question: And the GI50 (T-47D breast)?
Answer: > 100 µM

Question: What about the TGI (T-47D breast) of the same molecule?
Answer: > 100 µM

Question: And the GI50 (TK-10 renal)?
Answer: > 100 µM

Question: And the TGI (TK-10 renal)?
Answer: > 100 µM

Question: What about the GI50 (U251 CNS) of the same molecule?
Answer: > 100 µM

Question: And the TGI (U251 CNS)?
Answer: > 100 µM

Question: And the GI50 (UACC-257 melanoma)?
Answer: > 100 µM

Question: And the TGI (UACC-257 melanoma)?
Answer: > 100 µM

Question: And the GI50 (UACC-62 melanoma)?
Answer: > 100 µM

Question: And the TGI (UACC-62 melanoma)?
Answer: > 100 µM

Question: What about the GI50 (UO-31 renal) of the same molecule?
Answer: > 100 µM

Question: And the TGI (UO-31 renal)?
Answer: > 100 µM
